This is an account of results in article PMC5439695 (PLoS ONE, 2017).

The test system of assay [1] is HEK293 and HepG2 cell lines. As to conditions: POD potency; for Cyto(realtime)_median: median over real-time cytotoxicity assays.
Another assay relates to estrogen receptor (ER). The note with it: ER antagonist; ToxCast chemicals only; ref Judson 2015; cited from earlier work.

In the case of `CC/C(=C(\c1ccccc1)c1ccc(OCCN(C)C)cc1)c1ccccc1` [Tamoxifen], in assay [1], the “Cyto(realtime)_median” value is recorded as 4.64 log10(M)*-1. The “AUC score in Judson 2015” value in the assay with estrogen receptor (ER) is listed as 0.447.
Take `CCCCNC(=O)OCC#CI` [3-Iodo-2-propynyl-N-butylcarbamate]: the “Cyto(realtime)_max” value in assay [1] (max over real-time cytotoxicity assays) is reported as 5.74 log10(M)*-1. In addition, the “Cyto(realtime)_median” value in assay [1] is given as 4.62 log10(M)*-1. In the assay on estrogen receptor (ER), the “AUC score in Judson 2015” value is 0.0283.
